A short description of the assay: concentration series on yeast TOR reporter LAP4 – cell-based, MLPCN hits, flow cytometry, dose response (AID 2745).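 Further: yeast exposed to compound for three hours at 30 degrees.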 The following applies: S. cerevisiae LAP4-GFP reporter, flow cytometry fluorescence; at 33 µM (top of the series). For orientation: A flow cytometer gives signals particle by particle.

SMILES strings stand for the structures. Where “and” joins values, the source holds several entries; their conditions need not be identical. Identical values can stand only once. Calls of active or inactive are those of the source. How the calls were made is not given here.

As for `Cc1cc(/C=C2/SC(=S)N(c3cccc(Cl)c3)C2=O)c(C)n1-c1cccnc1`, the LAP4-GFP fluorescence (kMESF) was 10.5 kMESF (inactive).

As for `COc1cc(N=c2ssnc2Cl)c(OC)cc1Cl`, the LAP4-GFP fluorescence (kMESF) was 13.4 kMESF (inactive) and 13.8 kMESF (inactive).

As for `O=C1CC(c2ccccc2)=NN1c1nc(-c2ccccc2)cs1`, the LAP4-GFP fluorescence (kMESF) was 3.94 kMESF (inactive).

On to `Cc1nc2ccc(NC(=O)c3oc4ccc(F)cc4c3C)cc2s1`, for which the LAP4-GFP fluorescence (kMESF) was 3.28 kMESF (inactive).

As to `CC(=O)Oc1oc(-c2ccccc2)nc1C=Nc1ccccc1`, the LAP4-GFP fluorescence (kMESF) was 8.16 kMESF (inactive).

For `O=C(Nc1nnc(-c2ccc3c(c2)CCCC3)o1)c1ccc(Cl)cc1Cl`, the LAP4-GFP fluorescence (kMESF) was 5.77 kMESF (inactive).

For `O=C(OCn1ncc(Br)c(Br)c1=O)c1ccccc1Cl`, the LAP4-GFP fluorescence (kMESF) is 10.5 kMESF (inactive).

Take `CCOC(=O)CSC1=NC(=O)/C(=C/c2ccc(OC)cc2)S1`: the LAP4-GFP fluorescence (kMESF) was 6.28 kMESF (inactive).

For the molecule `c1ccc(-c2csc(Nc3cccnc3)n2)nc1`, the LAP4-GFP fluorescence (kMESF) was 3.67 kMESF (inactive).

`Cc1cc(C)c(OCC(=O)Nc2nc(-c3ccccn3)cs2)c(C)c1`: the LAP4-GFP fluorescence (kMESF) was 5.78 kMESF (inactive).

On to `O=C(COc1ccccc1)N1CCN(c2ncnc3c2cnn3-c2ccccc2)CC1`, for which the LAP4-GFP fluorescence (kMESF) is 3.38 kMESF (inactive).

As to `CCCCC1OC23CCCCC2C(C#N)(C(=N)O3)C1(C#N)C#N` (stereo unspecified), the LAP4-GFP fluorescence (kMESF) was 3.98 kMESF (inactive).

For the molecule `O=C(Nc1cccc(-c2csc(Nc3ccccc3)n2)c1)c1ccccc1`, the LAP4-GFP fluorescence (kMESF) was 4.18 kMESF (inactive).

Consider `CN(C)c1ccc(N=Cc2nc(-c3ccccc3)oc2OC(=O)c2cccc(Cl)c2)cc1`, for which the LAP4-GFP fluorescence (kMESF) was 3.99 kMESF (inactive).

As to `Oc1c(C(Nc2nc3ccccc3s2)c2ccco2)ccc2cccnc12` (stereo unspecified), the LAP4-GFP fluorescence (kMESF) is 24.1 kMESF (inactive).

Regarding `Cc1ccc(S(=O)(=O)/N=C(\Sc2ccccc2)c2ccccc2)cc1`, the LAP4-GFP fluorescence (kMESF) was 6.11 kMESF (inactive).

For `O=C(CS(=O)c1ccccc1[N+](=O)[O-])Oc1ccc(Br)cc1` (stereo unspecified), the LAP4-GFP fluorescence (kMESF) was 21.8 kMESF (inactive).

`COC(=O)c1cc(N2C(=O)C3C(C2=O)C2(C)C=CC3(C)O2)ccc1Cl` (stereo unspecified): the LAP4-GFP fluorescence (kMESF) is 8.52 kMESF (inactive).

Regarding `Nc1ccccc1SC(C[N+](=O)[O-])c1ccccc1` (stereo unspecified), the LAP4-GFP fluorescence (kMESF) is 11.5 kMESF (inactive).

Take `N=C1/C(=C\c2coc3ccccc3c2=O)C(=O)N=C2SC(c3ccncc3)=NN12`: the LAP4-GFP fluorescence (kMESF) was -3.74 kMESF (inactive).

Regarding `O=C(Nc1ccc(NC(=O)c2cc3ccccc3o2)cc1)c1ccc2c(c1)OCCO2`, the LAP4-GFP fluorescence (kMESF) is 3.21 kMESF (inactive).

For the molecule `CC1(C)OC(c2ccccc2)=C/C(=C/C=C2C(=O)NC(=S)NC2=O)O1`, the LAP4-GFP fluorescence (kMESF) was 3.03 kMESF (inactive).

Consider `O=C(Nc1nnc(-c2ccc(F)cc2)o1)c1cc(Cl)sc1Cl`, for which the LAP4-GFP fluorescence (kMESF) is 6.71 kMESF (inactive).

For `N#C/C(=C\c1cc(Br)ccc1F)C(=O)NC1CC1`, the LAP4-GFP fluorescence (kMESF) is 18.3 kMESF (inactive).

Take `Cc1ccc(S(=O)(=O)Cc2cc(F)c([N+](=O)[O-])cc2[N+](=O)[O-])cc1`: the LAP4-GFP fluorescence (kMESF) was 1.59 kMESF (inactive).

On to `CCN(CC)c1ccc2cc(-c3nc(-c4ccc(OC)cc4)cs3)c(=O)oc2c1`, for which the LAP4-GFP fluorescence (kMESF) was 1.57 kMESF (inactive).

Turning to `CC(=O)Oc1ccc(N2C(=O)C3C4C=CC(O4)C3C2=O)cc1` (stereo unspecified), the LAP4-GFP fluorescence (kMESF) is 6.57 kMESF (inactive).

Take `Cc1cc(NC(=O)c2cccnc2Cl)ccc1NC(=O)c1cc2ccccc2o1`: the LAP4-GFP fluorescence (kMESF) was 3.41 kMESF (inactive).

In the case of `Cc1c(N2C(=O)/C(=C\c3ccccc3O)SC2=S)c(=O)n(-c2ccccc2)n1C`, the LAP4-GFP fluorescence (kMESF) was 10.8 kMESF (inactive).

Turning to `O=C1C=C(c2ccc(Cl)cc2)C(=O)N1Nc1ccccc1`, the LAP4-GFP fluorescence (kMESF) was 5.81 kMESF (inactive).

Consider `Cc1ccc(N2C(=O)C(Cl)=C(Nc3c(C)n(C)n(-c4ccccc4)c3=O)C2=O)cc1`, for which the LAP4-GFP fluorescence (kMESF) was 2.87 kMESF (inactive).

For the origin of these results see PubChem BioAssay AID2745 (NMMLSC, 2010).
